Results published in patent US20180243317A1, “COMPOSITIONS COMPRISING A PI3K INHIBITOR AND AN HDAC INHIBITOR” (KARUS THERAPEUTICS LTD, priority 2015, published 2018).
pIC50: −log10 of the molar value. Read-outs that look alike come from different tables or passages of the source. Each block holds one molecule with its values, some of them ahead of it.

Columns and labels:
[1] = Rodent pharmacokinetics: oral bioavailability and clearance in male mice; design: species or system mouse; settings: in vivo
Method: Formulation: 10% DMSO, 90% Saline
Dosing: 10 mg/kg P.O. and 5 mg/kg I.V.
Animals in Group 1 were administered intravenously with Example B solution formulation in 20% Propylene Glycol, 50% of PEG 400 and 30% of (20% HPβCD in water) via tail vein at a dose of 3 mg/kg.
Animals in Group 2 were administered with oral solution formulation of Example B in 20% Propylene Glycol, 50% of PEG 400 and 30% of (20% HPβCD in water) at a dose of 10 mg/kg;
Dosing: 10 mg/kg P.O. and 3 mg/kg I.V.
Animals in Group 1 were administered intravenously with Example G solution formulation in 5% NMP, 5% solutol HS-15 in 90% HPβCD solution (20% HPβCD in RO water) at 3 mg/kg dose.
Animals in Group 2 were administered orally with 10 mg/kg solution formulation of Example G in 5% NMP, 5% solutol HS-15 in 90% HPβCD solution (20% HPβCD in RO water)

[2] = tested on: panel of 94 cancer cell lines; experiment: Potentiation study #2015030003, SRB proliferation assay; type: cell-based; settings: 72 h
Method: (§1) 48 hours later, cells were treated with 10μL media containing compound at 20× final concentration (resulting in a final DMSO concentration of 0.1%). […] In addition, control plates with cells not exposed to compound were analyzed after 48 hours (time zero, Tz). […] Briefly—after compound treatment, media was aspirated and cells were fixed by addition of 10% TCA.
(§2) Average background optical density (derived from plates and wells containing medium without cells) was subtracted from the optical density values from all controls and treated cells.

[3] = tested on: MINO cells (mantle cell lymphoma); experiment: SRB proliferation assay (potentiation and concentration matrix studies); type: cell-based, human; settings: in the presence of 100 nM Compound A, GI50 shift, z-score and/or HSA analysis
Method: (§3) Cell lines marked with ‡ were also tested in study #2015030004.
as §1, §2

[4] = tested on: PC-3 cells (prostate adenocarcinoma); experiment: as above; type: cell-based, human; settings: PC-3, in the presence of 100 nM Compound A; GI50 shift, z-score and/or HSA analysis
Method: as §3, §1, §2

[5] = tested on: LoVo cells (colorectal adenocarcinoma); experiment: SRB proliferation assay (potentiation study); type: cell-based, human; settings: in the presence of 100 nM Compound A, GI50 shift, z-score and/or HSA analysis
Method: as §1, §2

Recombinant human HDAC6 = target: T1, Recombinant human HDAC6 (Homo sapiens, UniProt Q9UBN7); experiment: HDAC biochemical assay with acetylated AMC-labeled peptide substrate; settings: read-out: IC50 HDAC 6
T1 construct: GST (N); made in house; host or cells: Sf9 insect cells (baculovirus)
T1 sequence (Q9UBN7 1-1215): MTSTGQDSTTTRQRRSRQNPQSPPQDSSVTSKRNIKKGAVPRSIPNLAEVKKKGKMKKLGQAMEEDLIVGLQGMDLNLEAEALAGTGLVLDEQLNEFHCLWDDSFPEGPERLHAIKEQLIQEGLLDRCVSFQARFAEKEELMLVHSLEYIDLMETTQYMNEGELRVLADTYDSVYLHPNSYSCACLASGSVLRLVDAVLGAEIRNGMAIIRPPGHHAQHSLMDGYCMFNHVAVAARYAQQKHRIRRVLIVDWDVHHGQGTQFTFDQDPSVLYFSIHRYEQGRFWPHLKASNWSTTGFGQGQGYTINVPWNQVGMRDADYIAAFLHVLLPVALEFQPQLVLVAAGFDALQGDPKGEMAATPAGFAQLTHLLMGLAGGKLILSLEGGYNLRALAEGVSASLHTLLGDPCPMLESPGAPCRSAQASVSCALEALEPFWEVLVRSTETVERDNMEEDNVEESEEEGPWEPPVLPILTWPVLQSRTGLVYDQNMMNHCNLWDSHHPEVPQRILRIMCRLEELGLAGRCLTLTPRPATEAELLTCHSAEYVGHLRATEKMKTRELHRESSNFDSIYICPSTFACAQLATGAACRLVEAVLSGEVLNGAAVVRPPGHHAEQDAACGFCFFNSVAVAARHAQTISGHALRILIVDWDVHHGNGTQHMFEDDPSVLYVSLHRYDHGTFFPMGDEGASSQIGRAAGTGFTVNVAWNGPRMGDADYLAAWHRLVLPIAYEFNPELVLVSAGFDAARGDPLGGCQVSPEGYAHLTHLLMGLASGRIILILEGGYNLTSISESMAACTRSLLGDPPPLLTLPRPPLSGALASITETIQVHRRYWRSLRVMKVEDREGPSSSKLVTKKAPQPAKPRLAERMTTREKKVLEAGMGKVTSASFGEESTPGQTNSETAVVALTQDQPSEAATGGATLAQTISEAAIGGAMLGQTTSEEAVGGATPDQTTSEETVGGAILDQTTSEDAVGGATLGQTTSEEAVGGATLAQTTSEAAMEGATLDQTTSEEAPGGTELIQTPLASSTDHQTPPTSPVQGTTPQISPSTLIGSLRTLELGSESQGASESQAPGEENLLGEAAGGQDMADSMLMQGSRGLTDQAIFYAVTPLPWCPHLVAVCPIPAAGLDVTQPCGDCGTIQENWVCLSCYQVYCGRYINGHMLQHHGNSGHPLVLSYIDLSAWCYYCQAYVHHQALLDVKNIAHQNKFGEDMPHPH
Method: (§4) Activity against all zinc-dependent HDACs 1 to 11 was assessed by using an acetylated AMC-labeled peptide substrate. The substrate RHKKAc was used for all class I and IIb HDACs; for HDAC8, the substrate used was RHKAcKAc. […] All assays were based on the AMC-labeled substrate and developer combination.
(§5) The protocol involved a two-step reaction: first, the substrate with the acetylated lysine side chain is incubated with a sample containing HDAC activity, to produce the deacetylated products, which are then digested in the second step by the addition of developer to produce the fluorescent signal proportional to the amount of deacetylated substrates.
Human HDAC5 (GenBank Accession No. NM_005474), full length with N-terminal GST tag, MW=150 kDa, expressed in baculovirus expression system. Recombinant human HDAC6 (GenBank Accession No. BC069243), full length, MW=180 kDa, was expressed by baculovirus in Sf9 insect cells using an N-terminal GST tag.
(§6) Before use, 1 mg/mL BSA and DMSO are added.
(§7) Incubate for 2 hours at 30° C.
(§8) Fluorescence background signal is then subtracted from compound data signal.
(§9) Stage 1: Deacetylation of substrate by incubation of HDAC enzymes with compounds
(§10) Stage 2: Development by addition of Developer to digest the deacetylated substrate, and generate the fluorescent color; Detection: 360/460 Ex/Em

Human HDAC1 = target: T2, Human HDAC1 (Homo sapiens, UniProt Q13547); experiment: as above; settings: read-out: IC50 HDAC 1
T2 construct: full length with C-terminal His-tag and C-terminal FLAG-tag; His-tag (C); FLAG-tag (C); made in house; host or cells: baculovirus expression system
T2 sequence (Q13547 whole entry): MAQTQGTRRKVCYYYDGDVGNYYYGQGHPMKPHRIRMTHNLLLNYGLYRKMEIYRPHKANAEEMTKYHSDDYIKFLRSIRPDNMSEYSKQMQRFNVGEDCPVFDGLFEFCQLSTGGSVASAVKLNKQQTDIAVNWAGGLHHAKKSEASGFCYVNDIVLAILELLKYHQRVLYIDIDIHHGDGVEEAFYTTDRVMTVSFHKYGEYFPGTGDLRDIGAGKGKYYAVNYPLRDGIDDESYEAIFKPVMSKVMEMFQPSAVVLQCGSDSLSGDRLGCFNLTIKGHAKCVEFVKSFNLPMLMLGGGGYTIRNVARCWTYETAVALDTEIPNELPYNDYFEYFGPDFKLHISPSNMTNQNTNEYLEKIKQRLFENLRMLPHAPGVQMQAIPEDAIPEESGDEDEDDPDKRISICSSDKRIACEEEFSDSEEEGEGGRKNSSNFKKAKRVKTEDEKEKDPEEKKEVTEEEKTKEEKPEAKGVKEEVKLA
Method: as §4, §5
Human HDAC1 (GenBank Accession No. NM_004964), full length with C-terminal His-tag and C-terminal FLAG-tag, MW=56 kDa, expressed in baculovirus expression system.
as §6, §7, §8, §9, §10

Structure (SMILES): c1cc(-c2nc(N3CCOCC3)c3oc4ncc(CN5CCC56COC6)cc4c3n2)c2cc[nH]c2c1 [G]
F ([1]; male, Balb/c, mouse): 30%
clearance ([1]; male, mouse, summary table, mice, IV, read-out: Clearance): 1560 mL/h/kg

Structure (SMILES): c1cc(-c2nc(N3CCOCC3)c3oc4ncc(CN5CCCCC5)cc4c3n2)c2cc[nH]c2c1 [Example I in WO2011/021038, reference compound]
Oral Bioavailability (F) ([1]; male, mouse, po, 10 mg/kg): 28

Structure (SMILES): Cn1ccc(N(Cc2ccc(C(=O)NO)cc2)c2cc(-c3ccc(F)cc3)ccn2)n1 [Example Q, 4-(((4-(4-Fluorophenyl)pyridin-2-yl)(1-methyl-1H-pyrazol-3-yl)amino)methyl)-N-hydroxybenzamide]
pIC50 (Recombinant human HDAC6): ≥ 6.30
pIC50 (Human HDAC1): 5.00 to 6.00

Structure (SMILES): Cn1c(N(Cc2ccc(C(=O)NO)cc2)c2ccc(F)cn2)nc2ccccc21 [Example N, 4-(((5-Fluoropyridin-2-yl)(1-methyl-1H-benzo[d]imidazol-2-yl)amino)methyl)-N-hydroxybenzamide]
pIC50 (Recombinant human HDAC6): ≥ 6.30
pIC50 (Human HDAC1): < 5.00

Structure (SMILES): O=C(NO)c1ccc(CN(c2ccncn2)c2cnccn2)c(F)c1 [Example EE]
pIC50 (Recombinant human HDAC6): ≥ 6.30
pIC50 (Human HDAC1): 5.00 to 6.00

Structure (SMILES): O=C(NO)c1ccc(CN(c2ccncn2)c2cnccn2)cc1 [Example DD, N-Hydroxy-4-{[(pyrazin-2-yl)(pyrimidin-4-yl)amino]methyl}benzamide]
pIC50 (Recombinant human HDAC6): ≥ 6.30
pIC50 (Human HDAC1): 5.00 to 6.00

Now from value to molecule, other results behind:

F ([1]; mouse): 74%
AUC(0-t) ([1]; mouse, iv, 3 mg/kg): 1510 ng·h/mL
AUCinf ([1]; mouse, iv, 3 mg/kg): 1512.20 ng·h/mL
Cmax ([1]; mouse, iv, 3 mg/kg): 621.42 ng/mL
Vss ([1]; mouse, iv, 3 mg/kg): 5.51 L/kg
clearance ([1]; mouse, iv, 3 mg/kg): 1983.6 mL/h/kg
t1/2 ([1]; mouse, iv, 3 mg/kg): 1.23 h
AUC(0-t) ([1]; mouse, po, 10 mg/kg): 3730 ng·h/mL
AUCinf ([1]; mouse, po, 10 mg/kg): 4103.86 ng·h/mL
Structure (SMILES): c1cc(-c2nc(N3CCOCC3)c3oc4ncc(CN5CCC6(CC5)COC6)cc4c3n2)c2cc[nH]c2c1 [B]

F ([1]; male, CD1, mouse): 73.77%
clearance ([1]; male, CD1, mouse, iv, 5 mg/kg): 1267 mL/h/kg
clearance ([1]; male, mouse, iv): 1260 mL/h/kg
Oral Bioavailability (F) ([1]; male, mouse, po, 10 mg/kg): 74
Structure (SMILES): c1cc(-c2nc(N3CCOCC3)c3oc4ncc(CN5C[C@@H]6C[C@H]5CO6)cc4c3n2)c2cc[nH]c2c1 [A]

GI50 ([2]; Compound GG alone, read-out: GI50 values for the individual cell lines (range)): 4.7 to 33 µM
GI50 ([2]; Compound GG alone, read-out: mean (±s.e.m) GI50 value across the whole panel): 17.3 µM
GI50 ([2]; Compound GG in the presence of 100 nM Compound A, read-out: GI50 values for the individual cell lines (range)): 1.7 to 35 µM
GI50 ([2]; Compound GG in the presence of 100 nM Compound A, read-out: mean (±s.e.m) GI50 value across the whole panel): 14.1 µM
Structure (SMILES): O=C(NO)c1ccc(CN(c2cnccn2)c2cnccn2)cc1 [Example GG, 4-{[Bis(pyrazin-2-yl)amino]methyl}-N-hydroxybenzamide]
potentiation of the pharmacological activity of Compound GG by Compound A [3]: potentiate
potentiation of the pharmacological activity of Compound GG by Compound A [4]: potentiate
potentiation of the pharmacological activity of Compound GG by Compound A [5]: potentiate

pIC50 (Recombinant human HDAC6): ≥ 6.30
pIC50 (Human HDAC1): < 5.00
Structure (SMILES): Cc1noc(N(Cc2ccc(C(=O)NO)cc2)c2ccc(F)cn2)n1 [Example M, 4-(((5-Fluoropyridin-2-yl)(3-methyl-1,2,4-oxadiazol-5-yl)amino)methyl)-N-hydroxybenzamide]

pIC50 (Recombinant human HDAC6): ≥ 6.30
pIC50 (Human HDAC1): < 5.00
Structure (SMILES): O=C(NO)c1ccc(CN(c2ccccn2)c2ncns2)cc1 [Example K, N-Hydroxy-4-((pyridin-2-yl(1,2,4-thiadiazol-5-yl)amino)methyl)benzamide]
